Measured values published in PubChem BioAssay (NCI).
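Five compound concentrations were applied to cells in 96-well plates for 48 hours; endpoints were derived by simple linear interpolation of the resulting dose-response curve. GI50 marks 50% less growth. TGI denotes the concentration required for complete inhibition of growth.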

Experiments:
Test in all cases: NCI tumour cell line growth inhibition, 48 h
[1] = test system: A549 NSCLC
[2] = test system: NCI/ADR-RES ovarian
[3] = test system: UACC-62 melanoma
[4] = test system: HT29 colon
[5] = test system: SW-620 colon
[6] = test system: NCI-H460 lung
[7] = test system: HCC-2998 colon
[8] = test system: NCI-H226 lung
[9] = test system: TK-10 renal
[10] = test system: UACC-257 melanoma
[11] = test system: OVCAR-4 ovarian
[12] = test system: OVCAR-5 ovarian
[13] = test system: SNB-75 CNS
[14] = test system: NCI-H522 lung
[15] = test system: EKVX NSCLC
[16] = test system: MDA-MB-435
[17] = test system: HS 578T breast
[18] = test system: COLO 205 colon
[19] = test system: HCT-15 colon
[20] = test system: MCF7 breast
[21] = test system: SF-268 CNS
[22] = test system: IGROV1 ovarian
[23] = test system: SR leukemia
[24] = test system: SK-MEL-28 melanoma
[25] = test system: SF-295 CNS
[26] = test system: HL-60(TB) leukemia
[27] = test system: SN12C renal
[28] = test system: K-562 leukemia
[29] = test system: A498 renal
[30] = test system: MOLT-4 leukemia
[31] = test system: RPMI-8226 leukemia
[32] = test system: CCRF-CEM leukemia
[33] = test system: HOP-62 NSCLC
[34] = test system: OVCAR-3 ovarian
[35] = test system: MALME-3M melanoma
[36] = test system: HOP-92 NSCLC
[37] = test system: KM12 colon
[38] = test system: PC-3 prostate
[39] = test system: NCI-H23 lung
[40] = test system: MDA-MB-231 breast
[41] = test system: BT-549 breast
[42] = test system: HCT-116 colon
[43] = test system: OVCAR-8 ovarian
[44] = test system: ACHN renal
[45] = test system: LOX IMVI melanoma
[46] = test system: T-47D breast
[47] = test system: DU-145 prostate
[48] = test system: UO-31 renal
[49] = test system: U251 CNS
[50] = test system: SK-MEL-5 melanoma
[51] = test system: SF-539 CNS
[52] = test system: M14 melanoma
[53] = test system: SNB-19 CNS
[54] = test system: 786-0 renal
[55] = test system: SK-OV-3 ovarian
[56] = test system: SK-MEL-2 melanoma
[57] = test system: CAKI-1 renal
[58] = test system: RXF 393 renal

O=C1c2ccc3c4c(ccc(c24)C(=O)N1CCCNCc1ccccc1)C(=O)N(CCCNCc1ccccc1)C3=O
GI50 [1]: 131 nM
TGI [1]: 365 nM
GI50 [2]: 236 nM
TGI [2]: 779 nM
GI50 [3]: 180 nM
TGI [3]: 333 nM
GI50 [4]: 42.1 nM
TGI [4]: 231 nM
GI50 [5]: 75.8 nM
TGI [5]: 326 nM
GI50 [6]: 146 nM
TGI [6]: 579 nM
GI50 [7]: 154 nM
TGI [7]: 303 nM
GI50 [8]: 694 nM
TGI [8]: 2250 nM
GI50 [9]: 119 nM
TGI [9]: 413 nM
GI50 [10]: 199 nM
TGI [10]: 386 nM
GI50 [11]: 119 nM
TGI [11]: 248 nM
GI50 [12]: 233 nM
TGI [12]: 648 nM
GI50 [13]: 147 nM
TGI [13]: 291 nM
GI50 [14]: 142 nM
TGI [14]: 303 nM
GI50 [15]: 165 nM
TGI [15]: 323 nM
GI50 [16]: 180 nM
TGI [16]: 356 nM
GI50 [17]: 531 nM
TGI [17]: 3240 nM
GI50 [18]: 113 nM
TGI [18]: 240 nM
GI50 [19]: 116 nM
TGI [19]: 316 nM
GI50 [20]: 80.8 nM
TGI [20]: 330 nM
GI50 [21]: 173 nM
TGI [21]: 531 nM
GI50 [22]: 110 nM
TGI [22]: 405 nM
GI50 [23]: 75.6 nM
TGI [23]: 505 nM
GI50 [24]: 247 nM
TGI [24]: 636 nM
GI50 [25]: 173 nM
TGI [25]: 432 nM
GI50 [26]: 163 nM
TGI [26]: 412 nM
GI50 [27]: 145 nM
TGI [27]: 308 nM
GI50 [28]: 136 nM
TGI [28]: 778 nM
GI50 [29]: 951 nM
TGI [29]: 2180 nM
GI50 [30]: 85.8 nM
TGI [30]: 437 nM
GI50 [31]: 265 nM
TGI [31]: 939 nM
GI50 [32]: 170 nM
TGI [32]: 4730 nM
GI50 [33]: 232 nM
TGI [33]: 772 nM
GI50 [34]: 130 nM
TGI [34]: 476 nM
GI50 [35]: 152 nM
TGI [35]: 298 nM
GI50 [36]: 199 nM
TGI [36]: 585 nM
GI50 [37]: 108 nM
TGI [37]: 288 nM
GI50 [38]: 203 nM
TGI [38]: 622 nM
GI50 [39]: 180 nM
TGI [39]: 420 nM
GI50 [40]: 238 nM
TGI [40]: 917 nM
GI50 [41]: 451 nM
TGI [41]: 889 nM
GI50 [42]: 80.1 nM
TGI [42]: 390 nM
GI50 [43]: 99.3 nM
TGI [43]: 407 nM
GI50 [44]: 135 nM
TGI [44]: 722 nM
GI50 [45]: 135 nM
TGI [45]: 363 nM
GI50 [46]: 192 nM
TGI [46]: 429 nM
GI50 [47]: 156 nM
TGI [47]: 297 nM
GI50 [48]: 148 nM
TGI [48]: 364 nM
GI50 [49]: 112 nM
TGI [49]: 301 nM
GI50 [50]: 165 nM
TGI [50]: 302 nM
GI50 [51]: 194 nM
TGI [51]: 450 nM
GI50 [52]: 161 nM
TGI [52]: 307 nM
GI50 [53]: 130 nM
TGI [53]: 314 nM
GI50 [54]: 251 nM
TGI [54]: 837 nM
GI50 [55]: 285 nM
TGI [55]: 820 nM
GI50 [56]: 178 nM
TGI [56]: 363 nM
GI50 [57]: 210 nM
TGI [57]: 588 nM
GI50 [58]: 135 nM
TGI [58]: 270 nM

COc1cc(/C=C/C(=O)NC[C@]2(O)CCC3C4CCc5cc(O)ccc5C4CCC32C)ccc1O (some centres not stated)
GI50 [1]: 7640 nM
TGI [1]: > 100000 nM
GI50 [2]: 9890 nM
TGI [2]: 54300 nM
GI50 [3]: 16800 nM
TGI [3]: > 100000 nM
GI50 [4]: 3680 nM
TGI [4]: 28600 nM
GI50 [5]: 34100 nM
TGI [5]: > 100000 nM
GI50 [6]: 9470 nM
TGI [6]: > 100000 nM
GI50 [7]: 8620 nM
TGI [7]: 32400 nM
GI50 [8]: 35100 nM
TGI [8]: > 100000 nM
GI50 [9]: 2760 nM
TGI [9]: 14400 nM
GI50 [10]: 39500 nM
TGI [10]: > 100000 nM
GI50 [11]: 7490 nM
TGI [11]: > 100000 nM
GI50 [12]: 56900 nM
TGI [12]: > 100000 nM
GI50 [13]: 42500 nM
TGI [13]: > 100000 nM
GI50 [14]: 6890 nM
TGI [14]: 51700 nM
GI50 [15]: 13900 nM
TGI [15]: > 100000 nM
GI50 [16]: 4460 nM
TGI [16]: 37500 nM
GI50 [17]: 67600 nM
TGI [17]: > 100000 nM
GI50 [18]: 13400 nM
TGI [18]: 64500 nM
GI50 [19]: 7410 nM
TGI [19]: > 100000 nM
GI50 [20]: 13400 nM
TGI [20]: > 100000 nM
GI50 [21]: 96100 nM
TGI [21]: > 100000 nM
GI50 [22]: 10900 nM
TGI [22]: 62700 nM
GI50 [23]: 1530 nM
TGI [23]: 59700 nM
GI50 [24]: 33900 nM
TGI [24]: > 100000 nM
GI50 [25]: 6710 nM
TGI [25]: > 100000 nM
GI50 [26]: 3340 nM
TGI [26]: 90700 nM
GI50 [27]: 25400 nM
TGI [27]: > 100000 nM
GI50 [28]: 3740 nM
TGI [28]: 28400 nM
GI50 [29]: 74100 nM
TGI [29]: > 100000 nM
GI50 [30]: 3900 nM
TGI [30]: 32700 nM
GI50 [31]: 3160 nM
TGI [31]: 16700 nM
GI50 [32]: 3180 nM
TGI [32]: 86100 nM
GI50 [33]: 26700 nM
TGI [33]: > 100000 nM
GI50 [34]: 10300 nM
TGI [34]: > 100000 nM
GI50 [35]: 3500 nM
TGI [35]: 42300 nM
GI50 [36]: 21800 nM
TGI [36]: > 100000 nM
GI50 [37]: 5680 nM
TGI [37]: 36000 nM
GI50 [38]: 5200 nM
TGI [38]: > 100000 nM
GI50 [39]: 5630 nM
TGI [39]: 34000 nM
GI50 [40]: 18000 nM
TGI [40]: > 100000 nM
GI50 [41]: 5540 nM
TGI [41]: 52100 nM
GI50 [42]: 7970 nM
TGI [42]: 49300 nM
GI50 [43]: 23800 nM
TGI [43]: > 100000 nM
GI50 [44]: 9050 nM
TGI [44]: > 100000 nM
GI50 [45]: 8360 nM
TGI [45]: > 100000 nM
GI50 [46]: 6530 nM
TGI [46]: > 100000 nM
GI50 [47]: 23900 nM
TGI [47]: > 100000 nM
GI50 [48]: 4930 nM
TGI [48]: 49300 nM
GI50 [49]: 8470 nM
TGI [49]: > 100000 nM
GI50 [50]: 2910 nM
TGI [50]: 19300 nM
GI50 [51]: 16100 nM
TGI [51]: > 100000 nM
GI50 [52]: 4990 nM
TGI [52]: 37600 nM
GI50 [53]: 49000 nM
TGI [53]: > 100000 nM
GI50 [54]: 11300 nM
TGI [54]: 45700 nM
GI50 [55]: 82600 nM
TGI [55]: > 100000 nM
GI50 [56]: 38800 nM
TGI [56]: > 100000 nM
GI50 [57]: 46900 nM
TGI [57]: > 100000 nM
GI50 [58]: 6420 nM
TGI [58]: 85500 nM
